Source: patent publication US7566553B2, “Microorganism of Escherichia Sp, or Corynebacterium Sp, comprising foreign NADP dependent glyceraldehyde-3-phosphate dehydrogenase gene and method for producing L-lysine using the same” (CJ Corporation, priority 2004, dated 2009)

Experiments:
Assay in all cases: Resistance against lysine analogue AEC, relative growth rate in M9 minimum medium
Format in all cases: cell-based, Escherichia coli
E. coli strain CJ40225 = conditions: absorbance at 562 nm, relative to growth at zero AEC
Procedure: (§1) An Escherichia coli strain TF1 (Korean laid-open Patent No. 1992-0012444) was grown until the strain entered an exponential growth phase and suspended in a 0.1M phosphate buffer (pH 7.0) or 0.1M citrate buffer solution (pH 5.5). N-methyl-N′-nitro-nitrosoguanidine was added into the suspension to a final concentration of 200-500 μg/mL, reacted at 30° C. for 10-30 minutes, and inoculated into a minimum agar plate containing 1-30 g/L of a lysine analogue (AEC: S-(2-aminoethyl)-L-cysteine) to select an analogue-resistant strain. This strain was named “CJ40225”. The resistance of the strain against the lysine analogue was tested using an M9 minimum medium, and the relative growth rate was measured.
(§2) The used M9 minimum medium contained 4 g of glucose, 12.8 g of Na2HPO4.7H2O, 3 g of KH2PO4, 0.5 g of NaCl, and 1 g of NH4Cl per 1 liter of water.

E. coli strain TF1 = conditions: strain TE1 (so in the source), absorbance at 562 nm, relative to growth at zero AEC
Procedure: as §1, §2

[1] = test system: Wild type E. coli strain W3110; conditions: absorbance at 562 nm, relative to growth at zero AEC
Procedure: as §1, §2

## NCCSC[C@H](N)C(=O)O [AEC, S-(2-aminoethyl)-L-cysteine]
E. coli strain CJ40225; added AEC 5 g/L
  Relative Growth Rate (%): 124.3%
E. coli strain CJ40225; added AEC 10 g/L
  Relative Growth Rate (%): 88.4%
E. coli strain CJ40225; added AEC 20 g/L
  Relative Growth Rate (%): 89.2%
E. coli strain CJ40225; added AEC 40 g/L
  Relative Growth Rate (%): 73.9%
E. coli strain TF1; added AEC 5 g/L
  Relative Growth Rate (%): 103.5%
E. coli strain TF1; added AEC 10 g/L
  Relative Growth Rate (%): 128.9%
E. coli strain TF1; added AEC 20 g/L
  Relative Growth Rate (%): 112.5%
E. coli strain TF1; added AEC 40 g/L
  Relative Growth Rate (%): 17.5%
[1]; added AEC 5 g/L
  Relative Growth Rate (%): 66.3%
[1]; added AEC 10 g/L
  Relative Growth Rate (%): 39.8%
[1]; added AEC 20 g/L
  Relative Growth Rate (%): 7.4%
